Source: US9555086B2, “Compositions and methods for inducing an immune response” (The Regents of the University of Michigan, priority 2010, dated 2017)
Entries after “also recorded” stand apart in the source; their conditions may differ.

Key:
Th17 cells = experiment: Expansion of pathogen-specific Th17 cells in immunized CII-TCR Tg mice; assay type: in vivo
CD4+CD25+Foxp3+ Treg = experiment: Treg differentiation in DC/CD4+ T cell co-culture; assay type: cell-based, mouse; settings: 50 μg/ml peptide; for Treg differentiation (CD4+CD25+Foxp3+ abundance): DCs co-cultured with naïve CD4+CD25−CD62L+CD44− T cells, 5 days
Procedure: (A) DBA/1 bone marrow-derived CD11c+DCs were cultured overnight with 50 μg/ml SL ligand 65-79*0401 or ISL-negative control 65-79*0402, or medium. Syngeneic splenic CD4+ T cells were then added to the culture, and incubated with anti-CD3 and TGF-β for 5 days. On the left, flow cytometry dot plots showing percentages of CD25+Foxp3+ cells obtained from gated CD4+ T cells in each treatment. Each plot is representative of three experiments. On the right, bar graphs present results as mean percentage±SD of replicate samples. (B) Cultures were performed as in (A), with the exception that CD4+CD25− CD62L+CD44− naïve T cells, instead of CD4+ T cells were added to the CD11c+DCs. (C) DBA/1 bone marrow-derived CD11c+DCs were incubated overnight with 2 μg/ml tetramers (ISL-positive T-DRB1*0401, versus ISL-negative T-DRB1*0301, or T-DRB1*1501). Syngeneic CD4+CD25−CD62L+CD44− naïve T cells, anti-CD3 and TGF-β were then added to the culture and incubated for 5 days and analyzed as above.
DBA/1 bone marrow-derived CD11c+DCs were placed in 24-well plates (BD Biosciences, San Jose, Calif.) at a density of 2.5×10^5 cells per well and cultured overnight with or without 50 μg/ml of peptidic (65-79*0401 or 65-79*0402), or 2 μg/ml of tetrameric (T-DR1*0401, T-DR1*0301, or T-DR1*1501) ligands at 37° C. On the following day, 5.0×10^5 CD4+ T cells or CD4+CD25−CD62L+CD44− naïve T cells, isolated as described above, were added to each well in addition to anti-CD3 antibodies (5 μg/ml) and rhTGFβ (2.5 ng/ml).
After 5 days in culture, cells were harvested and stained for flow cytometric analysis using FITC anti-mouse CD4 (clone […]), PE anti-mouse CD25 (clone PC61) and isotype controls (Biolegend, San Diego, Calif.). […] After permeabilization, cells were stained using an APC-conjugated anti-mouse Foxp3 antibody (clone FLK-16S from e-Bioscience, San Diego, Calif.) and analyzed by FACScalibur flow cytometer using the CELLQuest™ software (Becton Dickinson, Franklin Lakes, N.J.).

trypsin and chymotrypsin = experiment: Trypsin/chymotrypsin stability assay; settings: after 30 minutes, 37° C., pH 8
CD11c+DCs = experiment: IL-23 and IL-6 production in LPS-stimulated bone marrow-derived CD11c+DCs (ELISA); assay type: cell-based, mouse; settings: LPS-treated DCs (100 ng/ml LPS)
Procedure: DBA/1 bone marrow-derived CD11c+DCs were cultured with or without 100 ng/ml LPS in the presence or absence of ISL-positive or ISL-negative 15mer peptides (50 μg/ml). Supernatants were collected at different time points and assayed for IL-23 and IL-6 content by ELISA.
(§1) To determine the rate of NO production, cells were loaded with 20 μM of the fluorescent NO probe 4,5-diaminofluorescein diacetate (DAF-2DA) and the fluorescence level was recorded every 5 minutes over a period of 500 minutes using a Fusion αHT system (PerkinElmer Life Sciences) at an excitation wavelength of 488 nm and emission wavelength of 515 nm. To determine IDO enzymatic activity, the generation of its product, kynurenine was measured (Takikawa et al. 1988. J Biol Chem 263:2041-2048.; herein incorporated by reference in its entirety). Cytokine concentrations were measured in cell culture supernatants using a Luminex platform (Millipore Corporation, Danvers, Mass.). In some experiments, cytokines were determined using ELISA (Quantikine®, R&D Systems, Minneapolis, Minn.) following the manufacture's instruction.

CD8+ and CD8− DC = experiment: Cytokine production by splenic DC subsets (Luminex); assay type: cell-based, mouse
Procedure: Splenic CD8+ and CD8− DC were isolated from DBA/1 mice as above and cultured in 96-well plates over time in the presence or absence of ISL-positive (65-79*0401) or ISL-negative (65-79*0402) peptides (50 μg/ml). At various time points thereafter, supernatants were collected and assayed for cytokine content, using the Luminex platform.
DBA/1 splenic unfractionated CD11c+ DCs (CD11c+), or their purified CD11c+CD8+ DCs (CD8+) or CD11c+CD8− DCs (CD8−) subsets were cultured with the ISL 65-79*0401 or ISL-negative control 65-79*0402 or medium. Supernatants were collected at different time points and assayed for cytokine content using a Luminex platform.
as §1

## H-KDLLEQKRAAVDTYC-NH2 [65-79*0401]
Th17 cells; 100 μg i.p. days 0, 7, 14, 21, day 42
  total antigen non-stimulated Th17 cells in draining lymph nodes: significant increase
Th17 cells; lymph node cells re-stimulated with bacterial antigen PPD
  percentage of Th17 cells after 6 days in culture: 13.1±0.5%
Th17 cells; lymph node cells stimulated with CII
  percentage of Th17 cells after 6 days in culture: 8.4±0.5%
Th17 cells; lymph node cells, without any antigen stimulation
  percentage of Th17 cells after 6 days in culture: 5.4±0.4%
CD4+CD25+Foxp3+ Treg; DCs co-cultured with CD4+ T cells, TGF-β, anti-CD3, 5 days
  Treg expansion (CD4+CD25+Foxp3+ abundance): significantly inhibited
CD4+CD25+Foxp3+ Treg
  Treg differentiation (CD4+CD25+Foxp3+ abundance): significantly inhibited
CD4+CD25+Foxp3+ Treg; listed as 65-79*040
  Treg differentiation (CD4+CD25+Foxp3+ abundance): statistically significant, yet modest
Trypsin and chymotrypsin
  degradation by trypsin/chymotrypsin (HPLC): degraded completely
CD11c+DCs
  IL-23 production: augmented
CD8+ and CD8− DC; CD11c+CD8+ DCs, 50 μg/ml peptide
  IL-6 / cytokine production: no production of any cytokines; also recorded: not in the CD11c+CD8+ subset
CD8+ and CD8− DC; CD11c+CD8− DCs
  time point of IL-6 peak: 24 h
CD8+ and CD8− DC; CD11c+CD8− DCs, 50 μg/ml peptide
  IL-6 production: robust production
CD8+ and CD8− DC; splenic DCs
  production of other cytokines (IL-4, IL-10, IL-12, IL-1β, TGFβ): did not show any increased production
